In brackets after ≈: the same amount, converted by molar mass. Entries after “also recorded” stand apart in the source; their conditions may differ. Where two headings read alike, the source gives them in different places.
Experiments:
Format in all cases: cell-based
[1] = tested on: Serratia marcescens IFO 12648; assay: Antibacterial activity (MIC, growth in BHI medium); parameters: key to Antibacterial activity (growth): -: grow; ±: slightly grow; +: not grow
Description: (§1) To a test tube was charged 3.8 ml of Brain Heart Infusion (BHI) medium, and 100 μl of a sample solution containing oleanolic, ursolic or glycyrrhetic acid and 100 μl of pre-incubated culture of bacterium selected from those listed below were added thereto. The mixture was incubated at 37° C. and then allowed to stand over night. The extent of the growth of bacterium was observed after two or five days. The MIC value was determined for each sample and summarized in Table 2. |Serratia marcescens IFO 12648

[2] = tested on: Streptococcus mutans OMZ 176; assay: Antibacterial activity (MIC, growth in BHI medium); parameters: key to Antibacterial activity (growth): -: grow; ±: slightly grow; +: not grow
Description: as §1, with “days.” for “days. The MIC value was determined for each sample and summarized in Table 2. |Serratia marcescens IFO 12648”
Streptococcus mutans OMZ 176

[3] = tested on: Streptococcus salivarius ATCC 9222; assay: Antibacterial activity (MIC, growth in BHI medium); parameters: key to Antibacterial activity (growth): -: grow; ±: slightly grow; +: not grow
Description: as §1, with “|Streptococcus salivarius ATCC 9222” for “|Serratia marcescens IFO 12648”

[4] = tested on: Bacillus megaterium QM B1551; assay: Antibacterial activity (MIC, growth in BHI medium); parameters: key to Antibacterial activity (growth): -: grow; ±: slightly grow; +: not grow
Description: as §1, with “|Bacillus megaterium QM B1551” for “|Serratia marcescens IFO 12648”

Esherichia coli K12 = assay: Antibacterial activity (MIC, growth in BHI medium); parameters: key to Antibacterial activity (growth): -: grow; ±: slightly grow; +: not grow
Description: as §1, with “days.” for “days. The MIC value was determined for each sample and summarized in Table 2. |Serratia marcescens IFO 12648”
Esherichia coli K12 (Gram negative)

[5] = tested on: Staphylococcus aureus 209P; assay: Antibacterial activity (MIC, growth in BHI medium); parameters: key to Antibacterial activity (growth): -: grow; ±: slightly grow; +: not grow
Description: as §1, with “|Staphylococcus aureus […]” for “|Serratia marcescens IFO 12648”

[6] = tested on: Pseudomonas aeruginosa KM338; assay: Antibacterial activity (MIC, growth in BHI medium); parameters: key to Antibacterial activity (growth): -: grow; ±: slightly grow; +: not grow
Description: as §1, with “|Pseudomonas aeruginosa KM338” for “|Serratia marcescens IFO 12648”

[7] = tested on: S. mutans OMZ 176 (serotype d); assay: microbe, parasite or virus in culture; conditions: for inhibition at 10 µg/mL / inhibition at 20 µg/mL / inhibition at 30 µg/mL / inhibition at 50 µg/mL / inhibition at 100 µg/mL: Streptococcus mutans, read-out: Adherence-inhibiting activity (AIP); for adherence-inhibiting activity (in words): text statement
Description: The adherence-inhibiting activity of the triterpenes of the formula (I) was measured using an inner wall of a test tube in place of the surface of a tooth.
To 2.9 ml of BHI medium containing 5% sucrose in a test tube (i) are added 30 μl of a sample solution prepared by dissolving a compound of: the formula (I) in H2 O or dimethylsulfoxide (DMSO) and 100 μl of culture medium containing S. mutans OMZ 176 (serotype d) which was preincuvated at 37° C. for 24 hours in BHI medium, and the mixture is incubated at 37° C. for 20 hours, with the test tube being maintained at a slant of 30°. The test tube is revolved gently two or three times and the supernatant is transferred to another test tube (ii). To the first test tube (i) is added 3 ml of 50 mM phosphate buffer (pH 7.5), and the test tube is gently revolved two or three times. The resultant supernatant is transferred to the third test tube (iii). The test tubes (ii) and (iii) are each centrifuged and respective supernatants are discarded. To each of the test tubes (i), (ii) and (iii) is added 3 ml of 0.5M NaOH, and the test tubes are shaken to suspend bacterial cells. Absorbance of the resulting suspension is measured at 660 nm. The absorbances obtained with respect to the test tube (i), (ii) and (iii) are represented by Ab(i), Ab(ii) and Ab(iii), respectively. Ab(i) reflects the amount of the bacterial cells adhered to the wall of the test tube and Ab(ii) and Ab(iii) correspond to the amount of the bacterial cells not adhered to the wall.
The same procedure is repeated using 30 μl of distilled water or DMSO in place of the sample solution to obtain a control. The absorbance of the control is represented by Ab(Cont.).
Adherence percentage of bacteria is calculated from the following equation. [formula]
Adherence inhibitory percentage (AIP) is calculated using the adherence percentage according to the following equation. [formula]
The magnitude of adherence-inhibiting activity of each of the samples is shown, in Table 3, by the use of the following symbols: […]

CC1(C)[C@@H](O)CC[C@]2(C)[C@H]3C(=O)C=C4[C@@H]5C[C@@](C)(C(=O)O)CC[C@]5(C)CC[C@@]4(C)[C@]3(C)CC[C@@H]12 [Glycyrrhetic acid]
Antibacterial activity (growth) ([1]; 10 μg/ml): -
Antibacterial activity (growth) ([1]; 25 μg/ml): -
Antibacterial activity (growth) ([1]; 50 μg/ml): -
Antibacterial activity (growth) ([1]; 100 μg/ml): -
Antibacterial activity (growth) ([1]; 200 μg/ml): -
Antibacterial activity (growth) ([1]; 400 μg/ml): -
MIC ([1]; IFO12648, Serratia marcescens, BHI, 37° C., read-out: MIC (minimum inhibitory concentration)): > 400 µg/mL
antibacterial action on Serratia marcescens (in words) ([1]; text statement): remain unaffected
antibacterial activity to S. mutans (in words) [2]: exhibits a selective antibacterial activity on S. mutans and Bacillus megaterium; also recorded: very strong and selective antibacterial activity to S. mutans
Antibacterial activity (growth) ([2]; 10 μg/ml): +
Antibacterial activity (growth) ([2]; 25 μg/ml): +
Antibacterial activity (growth) ([2]; 50 μg/ml): +
Antibacterial activity (growth) ([2]; 100 μg/ml): +
Antibacterial activity (growth) ([2]; 200 μg/ml): +
Antibacterial activity (growth) ([2]; 400 μg/ml): +
MIC (minimum inhibitory concentration) ([2]; Streptococcus mutans OMZ 176, BHI, 37° C.): lower than 10 μg/ml
MIC ([2]; Streptococcus mutans, OMZ176, Streptococcus mutans OMZ 176, BHI, 37° C., read-out: MIC (minimum inhibitory concentration)): 10 µg/mL (≈ 21.2 µM)
Antibacterial activity (growth) ([3]; 10 μg/ml): -
Antibacterial activity (growth) ([3]; 25 μg/ml): -
Antibacterial activity (growth) ([3]; 50 μg/ml): -
Antibacterial activity (growth) ([3]; 100 μg/ml): -
Antibacterial activity (growth) ([3]; 200 μg/ml): -
Antibacterial activity (growth) ([3]; 400 μg/ml): ±
MIC ([3]; ATCC9222, Streptococcus salivarius, BHI, 37° C., read-out: MIC (minimum inhibitory concentration)): > 400 µg/mL
antibacterial action on Streptococcus salivarius (in words) ([3]; text statement): remain unaffected
Antibacterial activity (growth) ([4]; 10 μg/ml): -
Antibacterial activity (growth) ([4]; 25 μg/ml): +
Antibacterial activity (growth) ([4]; 50 μg/ml): +
Antibacterial activity (growth) ([4]; 100 μg/ml): +
Antibacterial activity (growth) ([4]; 200 μg/ml): +
Antibacterial activity (growth) ([4]; 400 μg/ml): +
MIC ([4]; Priestia megaterium, QMB1551, Bacillus megaterium, BHI, 37° C., read-out: MIC (minimum inhibitory concentration)): 25 µg/mL (≈ 53.1 µM)
antibacterial activity on Bacillus megaterium (in words) ([4]; text statement): exhibits a selective antibacterial activity on S. mutans and Bacillus megaterium
Antibacterial activity (growth) (Esherichia coli K12; 10 μg/ml): -
Antibacterial activity (growth) (Esherichia coli K12; 25 μg/ml): -
Antibacterial activity (growth) (Esherichia coli K12; 50 μg/ml): -
Antibacterial activity (growth) (Esherichia coli K12; 100 μg/ml): -
Antibacterial activity (growth) (Esherichia coli K12; 200 μg/ml): -
Antibacterial activity (growth) (Esherichia coli K12; 400 μg/ml): -
MIC (Esherichia coli K12; Esherichia coli, BHI, 37° C., read-out: MIC (minimum inhibitory concentration)): > 400 µg/mL
antibacterial action on Escherichia coli (in words) (Esherichia coli K12; text statement): remain unaffected
Antibacterial activity (growth) ([5]; 10 μg/ml): -
Antibacterial activity (growth) ([5]; 25 μg/ml): -
Antibacterial activity (growth) ([5]; 50 μg/ml): -
Antibacterial activity (growth) ([5]; 100 μg/ml): -
Antibacterial activity (growth) ([5]; 200 μg/ml): -
Antibacterial activity (growth) ([5]; 400 μg/ml): -
MIC ([5]; 209P, Staphylococcus aureus, BHI, 37° C., read-out: MIC (minimum inhibitory concentration)): 400 µg/mL (≈ 850 µM)
antibacterial action on Staphylococcus aureus (in words) ([5]; text statement): remain unaffected
Antibacterial activity (growth) ([6]; 10 μg/ml): -
Antibacterial activity (growth) ([6]; 25 μg/ml): -
Antibacterial activity (growth) ([6]; 50 μg/ml): -
Antibacterial activity (growth) ([6]; 100 μg/ml): -
Antibacterial activity (growth) ([6]; 200 μg/ml): -
Antibacterial activity (growth) ([6]; 400 μg/ml): -
MIC ([6]; KM338, Pseudomonas aeruginosa, BHI, 37° C., read-out: MIC (minimum inhibitory concentration)): > 400 µg/mL
antibacterial action on Pseudomonas aeruginosa (in words) ([6]; text statement): remain unaffected

CC1(C)[C@@H](O[C@H]2O[C@H](C(=O)O)[C@@H](O)[C@H](O)[C@H]2O[C@@H]2O[C@H](C(=O)O)[C@@H](O)[C@H](O)[C@H]2O)CC[C@]2(C)[C@H]3C(=O)C=C4[C@@H]5C[C@@](C)(C(=O)O)CC[C@]5(C)CC[C@@]4(C)[C@]3(C)CC[C@@H]12 [Glycyrrizic acid, reference compound]
antibacterial activity to S. mutans (in words) ([2]; text statement): could not be observed
inhibition at 10 µg/mL [7]: < 25%
inhibition at 20 µg/mL [7]: < 25%
inhibition at 30 µg/mL [7]: < 25%
inhibition at 50 µg/mL [7]: < 25%
inhibition at 100 µg/mL [7]: < 25%
adherence-inhibiting activity (in words) [7]: could not be observed

COC(=O)[C@]12CCC(C)(C)C[C@H]1C1=CC[C@@H]3[C@@]4(C)CC[C@H](O)C(C)(C)[C@@H]4CC[C@@]3(C)[C@]1(C)CC2 [Methyl oleanolate (17-position) (a), Methyl oleanolate, reference compound]
inhibition at 10 µg/mL [7]: < 25%
inhibition at 20 µg/mL [7]: < 25%
inhibition at 30 µg/mL [7]: < 25%
inhibition at 50 µg/mL [7]: < 25%
inhibition at 100 µg/mL [7]: < 25%

CC1(C)CC[C@]2(CO)CC[C@]3(C)C(=CC[C@@H]4[C@@]5(C)CC[C@H](O)C(C)(C)[C@@H]5CC[C@]43C)[C@@H]2C1 [Oleanolic acid (acid reductant) (b), reference compound]
inhibition at 10 µg/mL [7]: < 25%
inhibition at 20 µg/mL [7]: < 25%
inhibition at 30 µg/mL [7]: < 25%
inhibition at 50 µg/mL [7]: < 25%
inhibition at 100 µg/mL [7]: < 25%

CC1(C)CC[C@]2(C)CC=C3[C@]4(C)CC[C@H]5C(C)(C)[C@@H](O)CC[C@]5(C)[C@H]4CC[C@@]3(C)[C@@H]2C1 [Taraxerol, reference compound]
antibacterial activity to S. mutans (in words) ([2]; text statement): could not be observed
inhibition at 10 µg/mL [7]: < 25%
inhibition at 20 µg/mL [7]: < 25%
inhibition at 30 µg/mL [7]: < 25%
inhibition at 50 µg/mL [7]: < 25%
inhibition at 100 µg/mL [7]: < 25%
adherence-inhibiting activity (in words) [7]: could not be observed

CC(=O)O[C@H]1CC[C@]2(C)[C@H]3CC=C4[C@@H]5CC(C)(C)CC[C@]5(C(=O)O)CC[C@@]4(C)[C@]3(C)CC[C@H]2C1(C)C [reference compound]
inhibition at 10 µg/mL [7]: < 25%
inhibition at 20 µg/mL [7]: < 25%
inhibition at 30 µg/mL [7]: < 25%
inhibition at 50 µg/mL [7]: 25 to 50%
inhibition at 100 µg/mL [7]: 25 to 50%

Chikusetsusaponin V [Chikusetsusaponin V (e), reference compound]
antibacterial activity to S. mutans (in words) ([2]; text statement): could not be observed
adherence-inhibiting activity (in words) [7]: could not be observed

Source: US4606911A, “Pharmaceutical composition for the prevention of dental caries” (Rohto Pharmaceutical Co. Ltd., priority 1984, dated 1986)
